The assay concerns the target BTK (Homo sapiens (Human), UniProt Q06187). The experiment in a line: Btk kinase assay (HTRF). The assay is classed as biochemical. Particulars: [ATP]=80 μM, BTK=3.4 nM; read-out: BTK Inhibition. Here is the method: Btk kinase activity was determined using a homogenous time resolved fluorescence (HTRF) methodology. Measurements were performed in a reaction volume of 15 μL using 384-well assay plates. Kinase enzyme, inhibitor, ATP and 1 μM peptide substrate were incubated in a reaction buffer compose of Hepes 50 mM (pH7.0), NaN3 0.02%, BSA 0.01%, Orthocanadate 0.1 mM. After one hour, the kinase reaction was quenched by the addition of […] antibody and XL-665 in 1× Detection buffer containing 60 mM EDTA (Cisbio), and the mixture was allowed to incubate for one hour. The HTRF signal was measured on a multimode plate reader (EnVision® Multilabel Reader, Perkin Elmer) with an excitation wavelength (λEx) of 330 nm and detection wavelengths (λEm) of 615 and 665 nrm. Activity was determined by the ratio of the fluorescence at 665 nm to that at 615 nm. For each compound, enzyme activity as measured at various concentrations of compound, Negative control reactions were performed in the absence of inhibitor in two replicates and eight no enzyme controls were used to determine baseline fluorescence levels. IC50s were obtained according to the equation: […] For BTK assay, [ATP]=80 μM, BTK=3.4 nM.

The values that follow come from patent publication US10358446B2, “Bruton's tyrosine kinase inhibitors” (Zibo Biopolar Changsheng Pharmaceutical Co. Ltd., priority 2015, dated 2019).

Bounds are passed on as bounds.

Chain of BTK (Q06187 whole entry, species assumed): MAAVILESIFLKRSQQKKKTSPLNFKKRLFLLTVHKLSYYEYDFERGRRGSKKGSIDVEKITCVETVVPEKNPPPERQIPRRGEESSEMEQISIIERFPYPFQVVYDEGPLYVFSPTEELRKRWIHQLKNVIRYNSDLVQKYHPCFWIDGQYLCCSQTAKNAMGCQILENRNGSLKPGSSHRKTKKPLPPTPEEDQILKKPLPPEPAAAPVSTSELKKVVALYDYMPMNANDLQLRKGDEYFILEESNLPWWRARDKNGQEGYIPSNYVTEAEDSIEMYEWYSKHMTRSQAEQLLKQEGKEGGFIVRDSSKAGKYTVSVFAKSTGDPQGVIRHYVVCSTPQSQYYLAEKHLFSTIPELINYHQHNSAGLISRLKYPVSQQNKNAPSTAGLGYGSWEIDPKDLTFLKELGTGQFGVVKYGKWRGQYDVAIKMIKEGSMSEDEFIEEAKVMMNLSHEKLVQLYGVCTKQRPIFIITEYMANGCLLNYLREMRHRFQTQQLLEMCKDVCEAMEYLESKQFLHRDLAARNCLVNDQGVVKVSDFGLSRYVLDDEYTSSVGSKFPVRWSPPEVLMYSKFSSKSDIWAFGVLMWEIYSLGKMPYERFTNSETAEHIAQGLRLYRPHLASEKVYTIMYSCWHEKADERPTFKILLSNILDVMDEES

For the compound `C=CC(=O)Nc1cccc(-n2c(=O)n(-c3ccc(OCc4cccc(C(F)(F)F)c4)c(Cl)c3)c3cnccc32)c1` [Example 243, N-(3-(3-(3-chloro-4-((3-(trifluoromethyl)benzyl)oxy)phenyl)-2-oxo-2,3-dihydro-1H-imidazo[4,5-c]pyridin-1-yl)phenyl)acrylamide], the IC50 was in the range of 100 to 1000 nM.

Turning to `C=CC(=O)N1CC[C@@H](n2c(=O)n(-c3ccc(Oc4cccc(F)c4)cc3)c3cnccc32)C1` [Example 84, (R)-1-(1-acryloylpyrrolidin-3-yl)-3-(4-(3-fluorophenoxy)phenyl)-1H-imidazo[4,5-c]pyridin-2(3H)-one], the IC50 lay in the range of 10 to 100 nM. Consider `O=C(O)C1CCCC(n2c(=O)n(-c3ccc(Oc4ccccc4)cc3)c3cnccc32)C1` (centres unmarked) [Example 193, 3-(2-oxo-3-(4-phenoxyphenyl)-2,3-dihydro-1H-imidazo[4,5-c]pyridin-1-yl)cyclohexanecarboxylic acid], for which the IC50 lay within 1000 to 10000 nM. With `C=CC(=O)N1CC[C@@H](n2c(=O)n(-c3ccc(OCc4ccc(F)c(F)c4)cc3)c3cnccc32)C1` [Example 214, (R)-1-(1-acryloylpyrrolidin-3-yl)-3-(4-((3,4-difluorobenzyl)oxy)phenyl)-1H-imidazo[4,5-c]pyridin-2(3H)-one], the IC50 lay in the range of 1000 to 10000 nM. To `C=CC(=O)Nc1cccc(-n2c(=O)n(-c3ccc(Oc4cccc(C)c4C)cc3)c3cnccc32)c1` [Example 147, N-(3-(3-(4-(2,3-dimethylphenoxy)phenyl)-2-oxo-2,3-dihydro-1H-imidazo[4,5-c]pyridin-1-yl)phenyl)acrylamide] belongs 10 to 100 nM; to `C=CC(=O)Nc1cccc(-n2c(=O)n(-c3ccc(-c4ccc(C)cc4)cc3)c3cnccc32)c1` [Example 276, N-(3-(3-(4′-methyl-[1,1′-biphenyl]-4-yl)-2-oxo-2,3-dihydro-1H-imidazo[4,5-c]pyridin-1-yl)phenyl)acrylamide], 1000 to 10000 nM; to `CN(C/C=C/C(=O)N1CCC[C@@H](n2c(=O)n(-c3ccc(Oc4ccccc4)cc3)c3cnccc32)C1)C1CC1` [Example 188, (R,E)-1-(1-(4-(cyclopropyl(methyl)amino)but-2-enoyl)piperidin-3-yl)-3-(4-phenoxyphenyl)-1H-imidazo[4,5-c]pyridin-2(3H)-one], 100 to 1000 nM.

For `C=CC(=O)N1CC[C@@H](n2c(=O)n(-c3ccc(OCc4ccc(F)cc4F)cc3)c3cnccc32)C1` [Example 199, (R)-1-(1-acryloylpyrrolidin-3-yl)-3-(4-((2,4-difluorobenzyl)oxy)phenyl)-1H-imidazo[4,5-c]pyridin-2(3H)-one], the IC50 fell in the range of 100 to 1000 nM. For the compound `C=CC(=O)N1CC[C@@H](n2c(=O)n(-c3ccc(Oc4cccc(C)c4OC)cc3)c3cnccc32)C1` [Example 67, (R)-1-(1-acryloylpyrrolidin-3-yl)-3-(4-(2-methoxy-3-methylphenoxy)phenyl)-1H-imidazo[4,5-c]pyridin-2(3H)-one], the IC50 lay in the range of 10 to 100 nM. As to `C=CC(=O)Nc1cccc(-n2c(=O)n(-c3ccc(Oc4cccc(OC(C)C)c4)c(F)c3)c3cnccc32)c1` [Example 48, N-(3-(3-(3-fluoro-4-(3-isopropoxyphenoxy)phenyl)-2-oxo-2,3-dihydro-1H-imidazo[4,5-c]pyridin-1-yl)phenyl)acrylamide], the IC50 is 10 to 100 nM. `C=CC(=O)Nc1cccc(-n2c(=O)n(-c3ccc(OCc4ccccc4)c(F)c3)c3cnccc32)c1` [Example 234, N-(3-(3-(4-(benzyloxy)-3-fluorophenyl)-2-oxo-2,3-dihydro-1H-imidazo[4,5-c]pyridin-1-yl)phenyl)acrylamide]: the IC50 lay in the range of 100 to 1000 nM. For the compound `C=CC(=O)N1CC[C@@H](n2c(=O)n(-c3ccc(Oc4ccc(OC)cc4)c(Cl)c3)c3cnccc32)C1` [Example 42, (R)-1-(1-acryloylpyrrolidin-3-yl)-3-(3-chloro-4-(4-methoxyphenoxy)phenyl)-1H-imidazo[4,5-c]pyridine-2(3H)-one], the IC50 lay within 10 to 100 nM. In the case of `C=CC(=O)N1CC[C@@H](n2c(=O)n(-c3ccc(Oc4ccccc4)cc3)c3c(OC)nccc32)C1` [Example 182, (R)-1-(1-acryloylpyrrolidin-3-yl)-4-methoxy-3-(4-phenoxyphenyl)-1H-imidazo[4,5-c]pyridin-2(3H)-one], the IC50 was at least 10000 nM. Consider `C=C(C)C(=O)N1CC[C@@H](n2c(=O)n(-c3cccc(Oc4ccccc4)c3)c3cnccc32)C1` [Example 156, (R)-1-(1-methacryloylpyrrolidin-3-yl)-3-(3-phenoxyphenyl)-1H-imidazo[4,5-c]pyridin-2(3H)-one], for which the IC50 lay in the range of 1000 to 10000 nM. With `C=CC(=O)N1CC[C@@H](n2c(=O)n(-c3ccc(Oc4cc(Cl)cc(OC)c4)cc3)c3cnccc32)C1` [Example 9, (R)-1-(1-acryloylpyrrolidin-3-yl)-3-(4-(3-chloro-5-methoxyphenoxy)phenyl)-1H-imidazo[4,5-c]pyridin-2(3H)-one], the IC50 fell in the range of 10 to 100 nM. As to `C=CC(=O)Nc1cccc(-n2c(=O)n(-c3ccc(Oc4cccc(C)c4)c(Cl)c3)c3cnccc32)c1` [Example 144, N-(3-(3-(3-chloro-4-(m-tolyloxy)phenyl)-2-oxo-2,3-dihydro-1H-imidazo[4,5-c]pyridin-1-yl)phenyl)acrylamide], the IC50 lay within 10 to 100 nM. To `C=CC(=O)N1CCC(n2c(=O)n(-c3ccc(Oc4ccncc4)cc3)c3cnccc32)C1` (centres unmarked) [Example 164, 1-(1-acryloylpyrrolidin-3-yl)-3-(4-(pyridin-4-yloxy)phenyl)-1H-imidazo[4,5-c]pyridin-2(3H)-one] belongs 1000 to 10000 nM. For `C=CC(=O)N1CCC[C@@H](n2c(=O)n(-c3ccc(Oc4ccccc4)cc3)c3ccncc32)C1` [Example 122, (R)-3-(1-acryloylpiperidin-3-yl)-1-(4-phenoxyphenyl)-1H-imidazo[4,5-c]pyridin-2(3H)-one], the IC50 fell in the range of 1000 to 10000 nM. Turning to `C=CC(=O)N1CCC(n2c(=O)n(-c3ccc(Oc4cccc(OC(F)(F)F)c4)cc3)c3cnccc32)C1` (centres unmarked) [Example 112, 1-(1-acryloylpyrrolidin-3-yl)-3-(4-(3-(trifluoromethoxy)phenoxy)phenyl)-1H-imidazo[4,5-c]pyridin-2(3H)-one], the IC50 fell in the range of 10 to 100 nM. In the case of `C=CC(=O)N1CC[C@@H](n2c(=O)n(-c3ccc(OCc4cc(F)ccc4F)cc3)c3cnccc32)C1` [Example 209, (R)-1-(1-acryloylpyrrolidin-3-yl)-3-(4-((2,5-difluorobenzyl)oxy)phenyl)-1H-imidazo[4,5-c]pyridin-2(3H)-one], the IC50 lay in the range of 100 to 1000 nM.

With `C=CC(=O)N1CCC[C@@H](n2c(=O)n(-c3ccc(Oc4cccc(Cl)c4OC)cc3)c3cnccc32)C1` [Example 64, (R)-1-(1-acryloylpiperidin-3-yl)-3-(4-(3-chloro-2-methoxyphenoxy)phenyl)-1H-imidazo[4,5-c]pyridin-2(3H)-one], the IC50 was in the range of 100 to 1000 nM. As for `C=CC(=O)N1CCC(n2c(=O)n(-c3ccc(Oc4cccc(OC)c4)c(C)c3)c3cnccc32)C1` (centres unmarked) [Example 92, 1-(1-acryloylpyrrolidin-3-yl)-3-(4-(3-methoxyphenoxy)-3-methylphenyl)-1,3-dihydro-2H-imidazo[4,5-c]pyridin-2-one], the IC50 fell in the range of 10 to 100 nM. To `C=CC(=O)Nc1cccc(-n2c(=O)n(-c3ccc(Oc4cccc(OC(C)C)c4)c(C)c3)c3cnccc32)c1` [Example 46, N-(3-(3-(4-(3-isopropoxyphenoxy)-3-methylphenyl)-2-oxo-2,3-dihydro-1H-imidazo[4,5-c]pyridin-1-yl)phenyl)acrylamide] belongs 1000 to 10000 nM.
